The results in this text go back to PubChem BioAssay (NCI).

Some test systems named below: 786-0 renal; CCRF-CEM leukemia; EKVX NSCLC; HCT-15 colon; HOP-92 NSCLC; LOX IMVI melanoma; MDA-MB-435; MDA-N; MOLT-4 leukemia; SN12C renal; SR leukemia.
What all share (test): NCI tumour cell line growth inhibition, 48 h

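Compound exposure: 48 hours, 5 concentrations, 96-well plates. At the TGI there is no net growth.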 Bounds are passed on as bounds.

`O=C(C1=C(C(=O)c2ccccc2)SC2(S1)C(C(=O)c1ccccc1)=C(C(=O)c1ccccc1)Sc1c2ssc1=O)c1ccccc1`: the TGI with 786-0 renal, with CCRF-CEM leukemia, in the assay with EKVX NSCLC, in the assay with HCT-15 colon, in the assay on HOP-92 NSCLC and with LOX IMVI melanoma was greater than 100 µM in each case. For the same compound, the TGI in the assay on MDA-MB-435, in the assay on MDA-N, in the assay with MOLT-4 leukemia, in the assay on SN12C renal and in the assay on SR leukemia was greater than 100 µM in each case.

Turning to `Cc1nnc2cc(C(=O)O)c3ccccc3n2c1=O`, the TGI in the assay with 786-0 renal, in the assay on CCRF-CEM leukemia, in the assay with EKVX NSCLC, in the assay with HCT-15 colon, in the assay on HOP-92 NSCLC and with LOX IMVI melanoma was greater than 10 µM in each case. Moreover, the TGI in the assay on MDA-MB-435, with MDA-N, in the assay with MOLT-4 leukemia, in the assay with SN12C renal and in the assay on SR leukemia was greater than 10 µM in each case.

Regarding `CN(C)CCOC(=O)COc1ccc(Cl)cc1`, the TGI with 786-0 renal, with CCRF-CEM leukemia, in the assay on EKVX NSCLC, in the assay with HCT-15 colon, with HOP-92 NSCLC and in the assay with LOX IMVI melanoma was greater than 100 µM in each case. The TGI in the assay on MDA-MB-435, in the assay on MDA-N, in the assay with MOLT-4 leukemia, in the assay with SN12C renal and with SR leukemia was greater than 100 µM in each case.

Consider `O=C(N/N=C\c1cccc2ccccc12)Nc1ccc([N+](=O)[O-])cc1`, for which the TGI with 786-0 renal is greater than 37.8 µM; with CCRF-CEM leukemia, greater than 100 µM; with EKVX NSCLC, greater than 100 µM; with HCT-15 colon, greater than 100 µM; in the assay with HOP-92 NSCLC, 26.2 µM; in the assay with LOX IMVI melanoma it was greater than 100 µM. In addition, the TGI with MDA-MB-435 is greater than 100 µM; in the assay with MDA-N it was greater than 89 µM; in the assay on MOLT-4 leukemia it was greater than 100 µM; in the assay with SN12C renal it was greater than 73 µM; in the assay with SR leukemia it was greater than 100 µM.

As to `Cn1c(=O)c2c(-c3ccccc3)onc2n(C)c1=O`, the TGI was 86.5 µM in the assay on 786-0 renal; 77.9 µM in the assay with CCRF-CEM leukemia; greater than 100 µM in the assay on EKVX NSCLC; greater than 100 µM in the assay with HCT-15 colon; greater than 100 µM in the assay with HOP-92 NSCLC; 70.1 µM with LOX IMVI melanoma. Further, the TGI in the assay on MDA-MB-435 was greater than 100 µM; with MDA-N it was greater than 100 µM; with MOLT-4 leukemia, 81.5 µM; in the assay on SN12C renal, greater than 100 µM; in the assay with SR leukemia it was 75.2 µM.

For the compound `CCc1nnc(-n2c(C)nc3cc(Cl)ccc3c2=O)s1`, the TGI with 786-0 renal was 81.6 µM; in the assay with CCRF-CEM leukemia, 56.7 µM; in the assay with EKVX NSCLC, greater than 100 µM; with HCT-15 colon it was greater than 100 µM; in the assay with HOP-92 NSCLC it was 99.2 µM; with LOX IMVI melanoma it was greater than 100 µM. Also, the TGI was greater than 100 µM with MDA-MB-435; 49.1 µM in the assay on MDA-N; greater than 100 µM in the assay on MOLT-4 leukemia; greater than 100 µM in the assay with SN12C renal; greater than 100 µM in the assay with SR leukemia.

For `CC(=O)N(CN1C(=O)CCC1C(=O)O)c1ccccc1` (configuration not stated), the TGI in the assay on 786-0 renal, in the assay with CCRF-CEM leukemia, with EKVX NSCLC, in the assay on HCT-15 colon, in the assay on HOP-92 NSCLC and in the assay on LOX IMVI melanoma was greater than 100 µM throughout. In addition, the TGI in the assay with MDA-MB-435, in the assay with MDA-N, in the assay on MOLT-4 leukemia, with SN12C renal and in the assay with SR leukemia was greater than 100 µM throughout.
